Source: patent publication US9855238B2, “Compositions comprising 15-HEPE and methods of using the same” (Afimmune Limited, priority 2015, dated 2018)
Values joined by “and” are separate entries in the source; they are usually repeats but may differ in a detail not shown here. Equal values may be shown once.

Tests used:
Assay type in all cases: in vivo, human
[1] = Phase I Part 1 single ascending dose (SAD) pharmacokinetics of plasma 15(S)-HEPE, fasted; details: for AUC0-last / Cmax / Tlast / Tmax: plasma 15(S)-HEPE, Day 1; for AUC0-last / Cmax: geom. mean (geom. CV %); for Tlast / Tmax: median (minimum, maximum)
Experimental: (§1) A Phase I, single-centre, randomised, double-blind, placebo-controlled study in male and female healthy volunteers aged 18 to 45 years, inclusive was performed. Fifty-seven (57) subjects were enrolled with 8 subjects per cohort (ideally 4 males and 4 females, but no less than 3 per gender). Cohort 5 enrolled a total of 9 subjects to account for discontinued subjects. The effective date of study commencement was defined as inclusion of the first subject (inclusion starts with the informed consent signature). Subjects who were enrolled in Part 1 of the study (single dose cohorts) could have been brought back and re-enrolled in Part 2 (multiple dose) provided they had no AEs related to the study drug and that there was at least a 14-day washout period before starting the multiple dose. There were 18 subjects who participated in both study parts. The subjects underwent screening within 21 days prior to study Day 1.
Part 1 comprised 4 dose cohorts (100 mg, 500 mg, 1000 mg, and 2000 mg). Six (6) subjects were randomized to receive DS102 and 2 subjects received matching placebo. A single oral dose of DS102 or matching placebo was administered.
(§2) In Part 1, DS102 capsules (Lot No. 2540M-1504) or matching placebo (Lot No. KM73) were administered in a single oral dose according to Table 1.
(§3) For study Part 1, Cohorts 1, 2, 3, and 4 blood samples were taken predose on Day 1 up to 312 hours postdose. For study Part 2, Cohorts 5, 6, and 7 blood samples were taken on Days 1, 14, and 28 at predose and up to 168 hours postdose. The appropriate PK parameters, e.g., Cmax, Tmax, AUC0-24, AUC0-last, AUC0-inf, AUC % ext, Kel, t½, RCmax, and RAUC were presented, where appropriate. Plasma 15(S)-HEPE data contained many values below the limit of quantitation (BLQ) and only sparse measurable concentrations leading to incomplete PK profiles. Given the nature of the data observed, conventional dose proportionality and steady-state analyses could not be performed. No inferential statistical analyses were performed for PK parameters.
(§4) Summary statistics, including sample size (N), arithmetic mean (mean), standard deviation (SD), coefficient of variation (CV %), median, minimum, and maximum were calculated for all nominal concentration time points. Plasma 15(S)-HEPE PK parameters were tabulated by treatment and listed by subject and parameter. Summary statistics (N, mean, SD, CV %, median, minimum, and maximum) were calculated for plasma 15(S)-HEPE PK parameters. In addition, geometric mean (Geom. Mean) and geometric CV % (Geom. CV %) were presented for AUCs and Cmax. Excluded subjects were included in the PK parameter table listings, but were excluded from the summary statistics and noted as such in the tables. Mean and individual concentration-time profiles were presented on linear and semi-log scales. Linear mean plots were presented with and without SD. Individual plots were presented on linear and semi-log scales.

[2] = Phase I Part 1 food effect pharmacokinetics of plasma 15(S)-HEPE (standard ATPIII/TLC diet, high-fat diet); details: for Tlast / Tmax: median
Experimental: as §1
Cohort 2 also received 500 mg of DS102 in 2 fed states. While the first 500 mg dose was given in fasted state, the second and third 500 mg doses were given in fed state (standard ATPIII/TLC diet and high-fat diet, respectively). The second dose was received at least 14 days after their first dose and the third dose was received at least 14 days after their second dose.
as §2, §3, §4

[3] = Phase I Part 2 multiple ascending dose (MAD) pharmacokinetics of plasma 15(S)-HEPE, QD for 28 days, fasted; details: for AUC0-last / Cmax: geom. mean; for Tlast / Tmax: median; for RAUC / RCmax: mean ± SD
Experimental: as §1
Part 2 of the study involved a multipledose regimen at 3 dose levels using 3 cohorts consisting of 8 subjects each. Six (6) subjects were randomized to receive DS102 and 2 subjects received matching placebo. Cohorts 5 and 6 (9 and 8 subjects, respectively) received oral DS102 or placebo QD for 28 days.
In Part 2, DS102 capsules (Lot No. 2540M-1504) or matching placebo (Lot No. KM73) were administered QD for 28 days according to Table 2.
as §3, §4

[4] = Phase I safety evaluation (AEs, clinical laboratory tests, vital signs, ECGs); details: healthy subjects
Experimental: as §1
All clinical safety data were presented in by-subject data listings. Safety was evaluated by clinical laboratory tests, physical examination, vital signs, electrocardiograms (ECGs), and adverse events (AEs).
Continuous variables were summarized using number of observations (N), mean, SD, median, minimum, and maximum. Frequency counts were reported for categorical data. AEs were classified according to the Medical Dictionary for Regulatory Activities (MedDRA®), Version 18.0. Concomitant medications were classified according to the World Health Organization (WHO) Drug Dictionary 1 Mar. 2015. Vital sign, ECG, and laboratory summary and change from baseline results were presented. Shift tables were also presented for laboratory and ECG parameters.

[5] = single oral 500 mg fasted, N = 2
[6] = single oral 1000 mg fasted, N = 3
[7] = single oral 2000 mg fasted, N = 3
[8] = plasma 15(S)-HEPE, single oral 500 mg fed high fat diet, N = 6, geom. mean
[9] = plasma 15(S)-HEPE, single oral 500 mg fed high fat diet, N = 6
[10] = plasma 15(S)-HEPE, single oral 500 mg fed standard diet, N = 6, geom. mean
[11] = plasma 15(S)-HEPE, single oral 500 mg fed standard diet, N = 6
[12] = single oral 500 mg with a standard or high-fat diet
[13] = 500 mg QD fasted, Days 14 and 28
[14] = plasma 15(S)-HEPE, 500 mg QD fasted, Day 1, N = 6
[15] = plasma 15(S)-HEPE, 500 mg QD fasted, Day 1, reported only for Subject 38
[16] = plasma 15(S)-HEPE, 500 mg QD fasted, Day 14, N = 3
[17] = plasma 15(S)-HEPE, 500 mg QD fasted, Day 28, N = 2

15-Hydroxy-Eicosapentaenoic Acid Ethyl Ester [DS102]
AUC0-last [1, 5]: 1270 (70.9) ng * hr/mL and 1270 ng * hr/mL
Cmax [1, 5]: 343.7 (52.1) ng/mL and 343.7 ng/mL
Tlast [1, 5]: 8.001 (8.00, 8.00) hr and 8.001 hr
Tmax [1, 5]: 6.005 (6.00, 6.01) hr and 6.005 hr
AUC0-last [1, 6]: 1063 (102.6) ng * hr/mL
Cmax [1, 6]: 366.2 (102.5) ng/mL
Tlast [1, 6]: 7.999 (8.00, 8.00) hr
Tmax [1, 6]: 5.996 (5.99, 6.00) hr
AUC0-last [1, 7]: 733.3 (56.5) ng * hr/mL
Cmax [1, 7]: 294.3 (70.1) ng/mL
Tlast [1, 7]: 8.001 (8.00, 8.01) hr
Tmax [1, 7]: 8.001 (6.01, 8.01) hr
Plasma concentrations of 15(S)-HEPE ([1]; single oral 100 mg fasted, entire sampling interval, all subjects): BLQ
median Tmax ([1]; single oral 500 mg fasted): 6.00 h
median Tmax ([1]; single oral 1000 mg fasted): 6.00 h
median Tmax ([1]; single oral 2000 mg fasted): 8.00 h
delay of apparition of 15(S)-HEPE in plasma ([2]; 500 mg with high-fat diet compared to standard diet): 2 h
effect of fed state on 15(S)-HEPE absorption ([2]; fed state (standard or high-fat diet)): considerably increase 15(S)-HEPE absorption
AUC0-last [2, 8]: 9693 ng·h/mL
Cmax [2, 8]: 2402 ng/mL
Tlast [2, 9]: 11.993 h
Tmax [2, 9]: 6.021 h
AUC0-24 [2, 10]: 10940 ng·h/mL
AUC0-last [2, 10]: 8450 ng·h/mL
Cmax [2, 10]: 2420 ng/mL
Tlast [2, 11]: 8.017 h
Tmax [2, 11]: 4.014 h
AUC0-inf ([2]; plasma 15(S)-HEPE, single oral 500 mg fed standard diet, calculable for 4 subjects, geom. mean): 11050 ng·h/mL
t½ ([2]; plasma 15(S)-HEPE, single oral 500 mg fed standard diet, calculable for 4 subjects, mean ± SD): 1.998 ± 1.5155 h
Kel ([2]; plasma 15(S)-HEPE, single oral 500 mg fed standard diet, mean ± SD): 0.471 ± 0.228 h⁻¹
median Tmax ([2]; single oral 500 mg after a high-fat diet): 6.00 h
median Tmax ([2]; single oral 500 mg after a standard diet): 4.00 h
time at which peak mean plasma concentrations were reached [2, 12]: approximately 4 hours
time plasma concentrations remained quantifiable in at least one subject [2, 12]: 12 hours postdose
mean 15(S)-HEPE t½ ([2]; single oral 500 mg, standard diet): 2.00 h and 2.0 h
effect of diet on mean maximum and overall exposure of 15(S)-HEPE (Cmax and AUC0-last) ([2]; single oral 500 mg, standard or high-fat diet relative to fasted): increased mean maximum and overall exposure
mean plasma concentrations of 15(S)-HEPE, fed versus fasted ([2]; single oral 500 mg, standard or high-fat diet vs fasted): higher under fed conditions
time of peak mean 15(S)-HEPE concentrations ([3]; 500 mg QD fasted, Day 1): 4 h
time plasma concentrations remained measurable in at least one subject ([3]; 500 mg QD fasted, Day 14): 24 hours postdose
time plasma concentrations remained measurable in at least one subject ([3]; 500 mg QD fasted, Days 1 and 28): 12 hours postdose
predose values (troughs) [3, 13]: not quantifiable
time of peak mean 15(S)-HEPE concentrations [3, 13]: 6 h
mean plasma 15(S)-HEPE concentrations by study day ([3]; 1000 mg QD fasted): higher on Day 14 than on Days 1 and 28
time plasma concentrations remained quantifiable in at least one subject ([3]; 1000 mg QD fasted, Day 14): 12 hours postdose
time plasma concentrations remained quantifiable in at least one subject ([3]; 1000 mg QD fasted, Days 1 and 28): 8 hours postdose
predose values (troughs) ([3]; 1000 mg QD fasted, Days 14 and 28): no quantifiable predose values
AUC0-last [3, 14]: 1681 ng·h/mL
Cmax [3, 14]: 459.1 ng/mL
Tlast [3, 14]: 8.079 h
Tmax [3, 14]: 5.005 h
AUC0-24 [3, 15]: 6249 ng·h/mL
AUC0-inf [3, 15]: 6277 ng·h/mL
Kel [3, 15]: 0.245 h⁻¹
t½ [3, 15]: 2.824 h
AUC0-last [3, 16]: 2370 ng·h/mL
Cmax [3, 16]: 644.1 ng/mL
RAUC [3, 16]: 6.807 ± 10.322
RCmax [3, 16]: 4.177 ± 5.4055
Tlast [3, 16]: 8.034 h
Tmax [3, 16]: 5.995 h
AUC0-last [3, 17]: 2787 ng·h/mL
Cmax [3, 17]: 737.4 ng/mL
RAUC [3, 17]: 8.205 ± 10.210
RCmax [3, 17]: 5.923 ± 6.8329
Tlast [3, 17]: 10.002 h
Tmax [3, 17]: 6.004 h
adverse events considered related to the study treatment ([4]; following DS102 treatment): dysguesia and eructation
deaths, serious adverse events, discontinuations due to AEs ([4]; single and multiple ascending doses): no deaths, serious adverse events (SAEs), or subject discontinuations due to AEs
safety and tolerability ([4]; single ascending doses of 100 mg, 500 mg, 1000 mg and 2000 mg and multiple ascending doses of 500 mg, 500 and 1000 mg): safe and well tolerated
